Entries after “also recorded” stand apart in the source; their conditions may differ.
Tests used:
[1] = tested on: degradation of PAR (PARG); experiment: Immunoblot for PAR after TMZ exposure in LN428/MPG cells; type: cell-based; details: 1.5 mM TMZ
Method: Twenty microgram of protein was loaded on a precast 4-20% NuPAGE™ Tris-Glycine gel (Invitrogen, Carlsbad, Calif.). For whole cell extracts used in probing Poly(ADP-ribose) (PAR), 3×10^6 cells were seeded into a 100 mm cell culture dish 24 hours before drug treatment. Cells were then treated with TMZ (1.5 mM) or DMSO (control) for different periods of time. After treatment, cells were washed twice with cold PBS, collected and lysed in 400 μL of 2×Laemmli buffer (2% SDS, 20% Glycerol, 62.5 mM Tris-HCl pH6.8, 0.01% Bromophenol Blue). Samples were boiled for 8 minutes and extracts from approximately 1.5×10^5 cells were loaded each lane on a 4-12% pre-cast NuPAGE™ Tris-Glycine gel (Invitrogen, Carlsbad, Calif.) for immunoblot analysis. The following primary antibodies were used in immunoblot assays: anti-human MPG (Mab; clone 506-3D) (Trivedi et al., Mol. Pharmacol, 2008); anti-Polβ (Mab clone 61; Thermo Fisher Scientific); anti-APE1 (EMD Biosciences); anti-PCNA (Santa Cruz); anti-poly(ADP-ribose) (PAR) (Clone 10H); anti-MGMT (Novus, Littleton, Colo.).

PARG mRNA = experiment: qRT-PCR of PARG mRNA in LN428/MPG cells stably expressing shRNA; type: cell-based; details: LN428/MPG cells stably expressing each shRNA
Method: Human WT MPG, mutant MPG (N169D), WT Flag Polβ and Flag Pol β (K72A) expressing cell lines were developed by transfecting cells with corresponding plasmids using FuGene™ 6 Transfection Reagent (Roche, Indianapolis, Ind.) according to the manufacturer's protocol. Transfected cells were cultured in G418 and/or Puromycin for 2 weeks and individual clones stably expressing human MPG or Pol β were selected. Lentiviral particles were generated by co-transfection of 4 plasmids, pLKO.1-puro-TurboGFP (control, expresses GFP) or pCMV-tGFP-PARG (PARG shRNA, co-expresses PARG shRNA and GFP) together with pMD2.g(VSVG), pVSV-REV and PMDLg/pRRE, into 293-FT cells (Zufferey et al., J. Virol., 72:9873-9880, 1998; Zufferey et al., Nat. Biotechnol., 15:871-875, 1997) using FuGene™ 6 Transfection Reagent (Roche, Indianapolis, Ind.), as described previously (Tang et al., Mol. Cancer Res. 8(1):67-79, 2010). […] Cells expressing copGFP only or both copGFP and PARG specific shRNA were isolated by fluorescence activated cell sorting (FACS).
Expression of MPG, Polβ and PARP1 in the cell lines was measured by quantitative RT-PCR using an Applied Biosystems StepOnePlus™ system as described previously (Tang et al., Mol Cancer Res 8:67-79, 2010). […] Each sample was analyzed in triplicate and the results are an average of all three analyses. […]

T98G cells = experiment: Long-term cell survival assay (10 days); type: cell-based; details: 50 and 100 μM TMZ
Method: (§1) Results were calculated from the average of three or four separate experiments and are reported as the percentage of treated cells relative to the cells without treatment (% control).

T98G/MPG/Polβ KD cells [2] = experiment: Long-term cell survival assay (10 days)
Method: as §1

T98G/MPG cells = experiment: Long-term cell survival assay (10 days); details: for ABT-888-induced potentiation of TMZ: T98G/MPG vs T98G, 50 and 100 μM TMZ, p<0.05 and p<0.01
Method: as §1

T98G/MPG/Polβ KD cells [3] = tested on: T98G/MPG/Polβ KD cells
Method: as §1

[4] = tested on: LN428/MPG/Flag-Pol β-K72A cells; experiment: Short-term cell survival assay (48 hours MTS assay); type: cell-based; details: 5′ dRP lyase null mutant Polβ (K72A) over-expressed in LN428/MPG
Method: as §1

[5] = tested on: LN428/MPG/Flag-Polβ-WT cells; experiment: as above; type: cell-based; details: WT Polβ over-expressed in LN428/MPG
Method: as §1

[6] = tested on: LN428 cells over-expressing mutant MPG (N169D); experiment: as above; type: cell-based; details: glycosylase dead mutant MPG (N169D) over-expressed in LN428
Method: as §1

[7] = tested on: LN428/MPG/Flag-APE1 cells; experiment: as above; type: cell-based; details: APE1 over-expressed in LN428/MPG
Method: as §1

LN428 cells = experiment: as above; type: cell-based; details: MX 60 mM 30 min, then TMZ with MX 30 mM 48 hours
Method: as §1

[8] = tested on: LN428/MPG cells (MPG over-expressing); experiment: as above; type: cell-based; details: MX 60 mM 30 min, then TMZ with MX 30 mM 48 hours; LN428/MPG vs LN428
Method: as §1

LN428/MGMT/MPG cells = experiment: Long-term cell survival assay (10 days); type: cell-based; details: pre- (4 μM) and co-treatment with PJ34 (2 μM); LN428/MGMT/MPG vs LN428/MGMT
Method: as §1

PARP = details: PJ34 at 2 μM; cited from earlier work
LN428/MGMT cells = experiment: Long-term cell survival assay (10 days); type: cell-based; details: pre- (4 μM) and co-treatment with PJ34 (2 μM)
Method: as §1

Compound: PARG shRNA #2: MISSION TRC shRNA targeting PARG, SEQ ID NO: 10 (CCGGCGATTGCATGTCACTTACGAACTCGAGTTCGTAAGTGACATGCAATCGTTTTTG)
- degradation of PAR following exposure to TMZ [1]: greatly decreased the degradation of PAR
- level of PARG mRNA (rank among five shRNA constructs) (PARG mRNA): second lowest

Compound: PARG shRNA #4: MISSION TRC shRNA targeting PARG, SEQ ID NO: 12; used for PARG KD (CCGGGCTGAGCGAGATGTGGTTTATCTCGAGATAAACCACATCTCGCTCAGCTTTTTG)
- degradation of PAR following exposure to TMZ [1]: greatly decreased the degradation of PAR
- level of PARG mRNA (rank among five shRNA constructs) (PARG mRNA): lowest

Compound: C[C@]1(c2nc3c(C(N)=O)cccc3[nH]2)CCCN1 [ABT-888]
- ABT-888-induced potentiation of TMZ (T98G cells): sensitized T98G cells to TMZ
- cells killed by ABT-888 treatment alone (T98G/MPG/Polβ KD cells [2]; T98G/MPG/Polβ KD cells, no TMZ): about 70%
- ABT-888-induced potentiation of TMZ (cytotoxicity of TMZ and ABT-888 vs TMZ alone) (T98G/MPG/Polβ KD cells [2]; T98G/MPG/Polβ KD, 25 and 50 μM TMZ, p<0.01): significantly increased ABT-888-induced potentiation of TMZ; also recorded: significantly increased cytotoxicity compared to TMZ treatment alone
- cells killed by ABT-888 treatment alone (T98G/MPG cells; T98G/MPG cells, no TMZ): ~30%
- ABT-888-induced potentiation of TMZ (T98G/MPG cells): significantly increased the potentiation induced by ABT-888
- ABT-888-induced potentiation of TMZ (T98G/MPG cells; listed as A8T-888): significantly increased A8T-888-induced potentiation of TMZ

Compound: Cn1nnc2c(C(N)=O)ncn2c1=O [TMZ, 3-methyl-2-oxo-1,3,4,5,8-pentazabicyclo[4.3.0]nona-4,6,8-triene-7-carbooxamide]
- IC50 (T98G/MPG/Polβ KD cells [3]): < 25 µM

Compound: CON [MX, Methoxyamine]
- MX-induced potentiation of TMZ [4]: did not affect MX-induced potentiation of TMZ
- MX-induced potentiation of TMZ [5]: dramatically reduced the potentiation induced by MX
- MX-induced potentiation of TMZ [6]: did not sensitize LN428 cells to a combined treatment of MX and TMZ
- MX-induced potentiation of TMZ [7]: did not alter the potentiation of TMZ induced by MX
- MX-induced potentiation of TMZ (LN428 cells): sensitized both cell lines to TMZ
- MX-induced potentiation of TMZ [8]: dramatically increases MX-induced potentiation of TMZ; also recorded: much higher in the MPG over-expressing cells

Compound: CN(C)CC(=O)Nc1ccc2[nH]c(=O)c3ccccc3c2c1 [PJ34]
- PJ34-induced potentiation of TMZ (LN428/MGMT/MPG cells): substantially increased PJ34-induced potentiation of TMZ; also recorded: much higher in the MPG over expressing cells
- level of PARP activation following exposure to TMZ (PARP): significantly reduced the level of PARP activation
- PJ34-induced potentiation of TMZ (LN428/MGMT cells): sensitized cells to TMZ

Reference: patent US20130316349A1, “N-METHYLPURINE DNA GLYCOSYLASE AND POLYMERASE BETA AS BIOMARKERS FOR ALKYLATOR CHEMOTHERAPY POTENTIATION” (University of Pittsburgh - Of the Commonwealth System of …, priority 2010, published 2013)
